Data as given in patent US7247736B2, “Method of identifying inhibitors of DHODH” (4SC AG, priority 2002, dated 2007).
“Also recorded” adds a separate entry of the source.

molecular target: T1, human DHODH(Met30-Arg396) (Homo sapiens, UniProt Q02127); experiment: X-ray co-crystal structure, inhibitor binding mode; details: carboxylic acid group, subsite 2 vs subsite 3
T1 construct: N-terminally truncated human DHODH(Met30-Arg396); made in house; host or cells: E. coli BL21(DE3)Gold, pET-19b
Method: The hanging drops were incubated against 0.5 mL reservoir of 0.1 M acetate pH 4.8, 2.4-2.6 M ammonium sulfate and 30% glycerol. The crystallization conditions were screened by variation of pH versus ammonium sulfate concentration using a small grid screen (see FIG. 2):
The racemic mixtures were used for crystallization experiments.
Crystals were harvested with pre-mounted loops of size 0.5 mm (Hampton Research) and were flash frozen directly in the cryo stream of the measurement device.
Data were collected at the beamline BW6 at the DESY Hamburg on a MAR-CCD camera. […] The crystals were maintained at a temperature of 100 K during data collection.
[…] At this stage 5% or 10% (the “test set”) of unique reflections were flagged for cross validation to calculate the free R-factor (Rfree) during the refinement process.
(§1) The free accessible pdb entry 1D3G.pdb was used as a search model. The ligands brequinar and DDQ as well as all of the water molecules were removed prior to the MR search. The search model included the polypeptide chain of hDHODH(Met30-Arg396), one molecule of orotate, one molecule of the cofactor flavinmononucleotide (FMN) and one acetate molecule which was present under the crystallization conditions.
(§2) In a first round of refinement the MR model was subjected to rigid body refinement and a slow cooling simulated annealing protocol using a maximum likelihood target to remove model bias (Accelrys Inc. CNX program suite, CNX2002). Additionally, an individual b-factor refinement was carried out using standard CNX protocols.
After energy minimization the compound was built into the electron density manually. […] After an additional round of model building and water picking using CNX another complete round of refinement was performed.
as §1
as §2, with “CNX-protocols.” for “CNX protocols.”
Both compounds were energy minimized and built into the electron density manually. […] After an additional round of model building and water picking using CNX, another complete round of refinement was performed.

T1 sequence (Q02127 29-395): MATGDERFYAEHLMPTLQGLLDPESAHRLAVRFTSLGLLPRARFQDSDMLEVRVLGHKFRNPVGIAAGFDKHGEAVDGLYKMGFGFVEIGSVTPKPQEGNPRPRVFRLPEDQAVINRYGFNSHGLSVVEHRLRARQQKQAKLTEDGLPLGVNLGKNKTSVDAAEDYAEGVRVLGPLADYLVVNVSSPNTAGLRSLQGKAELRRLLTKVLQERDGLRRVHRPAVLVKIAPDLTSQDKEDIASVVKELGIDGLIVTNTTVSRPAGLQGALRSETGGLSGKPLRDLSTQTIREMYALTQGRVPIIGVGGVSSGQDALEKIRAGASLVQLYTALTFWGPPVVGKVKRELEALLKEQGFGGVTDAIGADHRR

| Compound | binding mode in crystal structure |
| --- | --- |
| COc1cccc(-c2ccc(NC(=O)C3=C(C(=O)O)CCC3)c(F)c2)c1 [Compound 1] | non-brequinar-like |
| O=C(O)C1=C(C(=O)Nc2c(F)cc(-c3cccc(OC(F)(F)F)c3)cc2F)CCC1 [Compound 2] | both a brequinar-like and a non-brequinar-like binding mode; also recorded: both the brequinar-like and non-brequinar-like binding mode |
| O=C(O)C1=C(C(=O)Nc2c(F)c(F)c(-c3cccc(OC(F)(F)F)c3)c(F)c2F)CCC1 [Compound 3] | both the brequinar-like and non-brequinar-like binding mode |
| O=C(O)C1=C(C(=O)Nc2ccc(-c3cccc(OC(F)(F)F)c3)cc2F)CCC1 [Compound 4] | non-brequinar-like |
| O=C(Nc1ccc(-c2cccc(OC(F)(F)F)c2)cc1F)C1=CCCC1C(=O)O (stereo not drawn) [Compound 5] | non-brequinar-like |
| COc1cccc(-c2ccc(NC(=O)C3CCCC3C(=O)O)c(F)c2)c1 (stereo not drawn) [Compound 6] | both a brequinar-like and a non-brequinar-like binding mode |
| COc1cccc(-c2ccc(NC(=O)c3ccsc3C(=O)O)c(F)c2)c1 [Compound 10] | both a brequinar-like and a non-brequinar-like binding mode; also recorded: both alternatives |

Continued, values first:

| binding mode in crystal structure | Compound |
| --- | --- |
| non-brequinar-like | COc1cccc(-c2ccc(NC(=O)C3=C(C(=O)O)CCC3O)c(F)c2)c1 (stereo not drawn) [Compound 7] |
| non-brequinar-like | COc1cccc(-c2ccc(NC(=O)C3=C(C(=O)O)C(O)CC3)c(F)c2)c1 (stereo not drawn) [Compound 8] |
| pure brequinar-like binding mode | O=C(Nc1c(F)cc(-c2cccc(OC(F)(F)F)c2)cc1F)c1ccsc1C(=O)O [Compound 9] |

same assay, conditions: racemic mixture used for crystallization

| enantiomer bound in refined structure | Compound |
| --- | --- |
| R-form | O=C(Nc1ccc(-c2cccc(OC(F)(F)F)c2)cc1F)C1=CCCC1C(=O)O (stereo not drawn) [Compound 5] |
| R-form | COc1cccc(-c2ccc(NC(=O)C3CCCC3C(=O)O)c(F)c2)c1 (stereo not drawn) [Compound 6] |
